# Results published in patent US20250304644A1, “PEPTIDES TRIPLE AGONISTS OF GIP, GLP-1 AND GLP-2” (BAINAN BIOTECH APS, priority 2021, published 2025).
# Key:
# Assay type in all cases: cell-based
# [1] = molecular target: T1, human SNP-tagged GLP-2R (Homo sapiens, UniProt O95838); test: Receptor internalization assay, HEK293A cells expressing human SNAP-tagged GLP-2R
# T1 construct: expressed in transfected cells; host or cells: HEK293A
# T1 sequence (O95838 1-553): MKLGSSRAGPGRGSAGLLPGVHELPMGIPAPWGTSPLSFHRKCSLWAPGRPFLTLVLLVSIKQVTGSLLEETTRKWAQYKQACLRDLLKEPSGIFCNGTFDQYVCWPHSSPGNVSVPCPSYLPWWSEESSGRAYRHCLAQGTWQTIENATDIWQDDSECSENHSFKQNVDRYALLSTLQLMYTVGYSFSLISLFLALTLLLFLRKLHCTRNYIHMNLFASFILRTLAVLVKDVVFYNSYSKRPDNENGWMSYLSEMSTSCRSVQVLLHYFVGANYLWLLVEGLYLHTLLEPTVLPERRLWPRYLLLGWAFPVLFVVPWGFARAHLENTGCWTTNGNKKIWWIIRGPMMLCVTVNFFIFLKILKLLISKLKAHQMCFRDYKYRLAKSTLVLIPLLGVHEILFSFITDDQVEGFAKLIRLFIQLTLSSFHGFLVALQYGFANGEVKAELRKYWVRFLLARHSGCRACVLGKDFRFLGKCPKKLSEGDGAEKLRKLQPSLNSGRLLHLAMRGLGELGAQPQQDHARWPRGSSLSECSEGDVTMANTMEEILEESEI
# [2] = molecular target: human glucagon receptor (GCGR) (Homo sapiens, UniProt P47871); test: Gs activation measured as cAMP accumulation on human glucagon receptor (FIG. 1 radar plot); conditions: read-out: −p Log EC50 on human glucagon receptor (GCGR) (converted)
# Chain of human glucagon receptor (GCGR) (P47871 26-477): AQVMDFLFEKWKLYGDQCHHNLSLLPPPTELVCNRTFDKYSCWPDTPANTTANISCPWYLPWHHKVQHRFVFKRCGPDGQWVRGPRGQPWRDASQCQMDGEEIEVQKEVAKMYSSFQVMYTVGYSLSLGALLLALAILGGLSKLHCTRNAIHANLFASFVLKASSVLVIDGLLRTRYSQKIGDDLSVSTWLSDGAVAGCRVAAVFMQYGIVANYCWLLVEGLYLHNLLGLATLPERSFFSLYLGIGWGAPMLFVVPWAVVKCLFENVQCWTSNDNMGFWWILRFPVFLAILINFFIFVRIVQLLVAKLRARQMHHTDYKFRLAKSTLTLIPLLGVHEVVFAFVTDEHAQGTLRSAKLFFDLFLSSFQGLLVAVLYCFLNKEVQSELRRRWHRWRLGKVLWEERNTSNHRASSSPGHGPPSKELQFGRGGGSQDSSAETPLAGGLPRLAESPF
# Excerpt: Here, the compounds 20, 21, 22, 28, 30, 31,32, 33, 34, 35 are shown in terms of their potencies in Gs activation, measured as CAMP accumulation, depicted in a radar plot. The numbers refer to −p Log EC50 values. […] The outer rings correspond to higher potencies, the inner rings correspond to lower potencies.
# [3] = molecular target: T2, human GLP-1R (Homo sapiens, UniProt P43220); test: cAMP assay (HitHunter) in transiently transfected COS-7 cells expressing human GLP-1R; conditions: COS-7, read-out: Efficacy GLP-1R (Emax)
# T2 construct: host or cells: COS-7
# T2 sequence (P43220 24-463): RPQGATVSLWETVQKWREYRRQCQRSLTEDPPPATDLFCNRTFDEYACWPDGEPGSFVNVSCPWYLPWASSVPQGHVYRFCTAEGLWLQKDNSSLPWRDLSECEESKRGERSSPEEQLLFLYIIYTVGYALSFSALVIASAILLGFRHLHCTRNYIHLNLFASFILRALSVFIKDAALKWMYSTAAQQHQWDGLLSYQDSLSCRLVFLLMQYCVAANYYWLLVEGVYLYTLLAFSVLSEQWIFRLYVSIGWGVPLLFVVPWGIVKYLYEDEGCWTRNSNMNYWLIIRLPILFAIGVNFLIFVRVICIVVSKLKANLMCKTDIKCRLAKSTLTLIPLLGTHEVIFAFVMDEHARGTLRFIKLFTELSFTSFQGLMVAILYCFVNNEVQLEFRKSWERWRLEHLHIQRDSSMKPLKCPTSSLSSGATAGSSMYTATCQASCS
# [4] = molecular target: T3, human GIPR (Homo sapiens, UniProt P48546); test: cAMP assay (HitHunter) in transiently transfected COS-7 cells expressing human GIPR; conditions: COS-7, read-out: Efficacy GIPR (Emax)
# T3 construct: host or cells: COS-7
# T3 sequence (P48546 22-466): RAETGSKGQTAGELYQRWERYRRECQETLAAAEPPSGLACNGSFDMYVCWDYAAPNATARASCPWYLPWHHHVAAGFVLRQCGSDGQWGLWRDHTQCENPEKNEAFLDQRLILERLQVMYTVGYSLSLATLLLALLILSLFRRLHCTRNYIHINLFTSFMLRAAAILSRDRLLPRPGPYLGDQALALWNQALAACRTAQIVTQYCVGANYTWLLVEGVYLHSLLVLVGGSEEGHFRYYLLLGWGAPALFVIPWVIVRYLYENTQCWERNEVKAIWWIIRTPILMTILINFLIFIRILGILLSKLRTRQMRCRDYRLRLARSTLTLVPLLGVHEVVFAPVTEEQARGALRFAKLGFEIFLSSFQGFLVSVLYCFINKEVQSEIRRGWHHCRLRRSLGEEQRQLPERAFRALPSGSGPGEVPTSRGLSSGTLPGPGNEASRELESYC
# [5] = molecular target: T4, human SNAP-tagged GLP-1R (Homo sapiens, UniProt P43220); test: Receptor internalization assay, HEK293A cells expressing human SNAP-tagged GLP-1R
# T4 construct: expressed in transfected cells; host or cells: HEK293A
# T4 sequence (P43220 24-463): as the sequence (P43220 24-463) above
# [6] = molecular target: T5, human GLP-2R (Homo sapiens, UniProt O95838); test: cAMP assay (HitHunter) in transiently transfected COS-7 cells expressing human GLP-2R; conditions: COS-7, read-out: Efficacy GLP-2R (Emax)
# T5 construct: host or cells: COS-7
# T5 sequence (O95838 1-553): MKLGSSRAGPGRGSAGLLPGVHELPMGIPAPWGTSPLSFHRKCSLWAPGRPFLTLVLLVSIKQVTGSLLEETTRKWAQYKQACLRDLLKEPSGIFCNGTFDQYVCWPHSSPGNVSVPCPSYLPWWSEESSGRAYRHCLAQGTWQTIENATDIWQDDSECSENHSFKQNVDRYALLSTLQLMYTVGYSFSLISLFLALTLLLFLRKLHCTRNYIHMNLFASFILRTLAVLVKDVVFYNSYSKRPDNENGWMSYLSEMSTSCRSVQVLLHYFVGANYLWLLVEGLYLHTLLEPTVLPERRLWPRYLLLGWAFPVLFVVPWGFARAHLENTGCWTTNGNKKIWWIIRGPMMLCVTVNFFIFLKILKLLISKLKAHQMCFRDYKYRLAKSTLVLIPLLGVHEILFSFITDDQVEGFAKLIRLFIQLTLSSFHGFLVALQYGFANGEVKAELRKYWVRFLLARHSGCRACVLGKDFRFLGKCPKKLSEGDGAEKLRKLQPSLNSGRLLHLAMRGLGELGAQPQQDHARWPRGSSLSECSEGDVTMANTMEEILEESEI
# [7] = molecular target: T6, human SNAP-tagged GIPR (Homo sapiens, UniProt P48546); test: Receptor internalization assay, HEK293A cells expressing human SNAP-tagged GIPR
# T6 construct: host or cells: HEK293A
# T6 sequence (P48546 22-466): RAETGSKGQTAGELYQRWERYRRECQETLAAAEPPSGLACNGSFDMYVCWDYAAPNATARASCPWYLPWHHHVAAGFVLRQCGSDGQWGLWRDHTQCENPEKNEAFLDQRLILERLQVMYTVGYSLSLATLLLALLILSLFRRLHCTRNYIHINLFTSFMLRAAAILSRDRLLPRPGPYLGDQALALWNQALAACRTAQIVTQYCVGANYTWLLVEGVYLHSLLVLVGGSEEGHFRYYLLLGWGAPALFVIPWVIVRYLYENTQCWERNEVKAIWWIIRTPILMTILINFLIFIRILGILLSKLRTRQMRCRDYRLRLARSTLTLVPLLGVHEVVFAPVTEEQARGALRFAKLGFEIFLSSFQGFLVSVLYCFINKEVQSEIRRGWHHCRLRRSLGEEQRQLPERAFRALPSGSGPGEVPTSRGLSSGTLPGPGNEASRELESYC
# [8] = AUC of sigmoid curves up to 1 μM, 60 minutes at 37° C.
smiles,measurement,setting,value
CC[C@H](C)[C@H](NC(=O)[C@H](Cc1ccccc1)NC(=O)[C@H](CC(=O)O)NC(=O)[C@H](CCCNC(=N)N)NC(=O)[C@H](C)NC(=O)[C@H](C)NC(=O)[C@H](CC(C)C)NC(=O)[C@H](CCCCNC(=O)COCCOCCNC(=O)COCCOCCNC(=O)CC[C@H](NC(=O)CCCCCCCCCCCCCCCCC(=O)O)C(=O)O)NC(=O)[C@H](CC(=O)O)NC(=O)[C@H](CC(C)C)NC(=O)[C@@H](NC(=O)[C@@H](NC(=O)[C@H](CO)NC(=O)[C@H](Cc1ccc(O)cc1)NC(=O)[C@H](CC(=O)O)NC(=O)[C@H](CO)NC(=O)[C@@H](NC(=O)[C@H](Cc1ccccc1)NC(=O)[C@@H](NC(=O)CNC(=O)[C@H](CC(=O)O)NC(=O)[C@H](C)NC(=O)[C@@H](N)Cc1c[nH]cn1)[C@@H](C)O)[C@@H](C)CC)[C@@H](C)O)[C@@H](C)CC)C(=O)N[C@@H](CC(N)=O)C(=O)N[C@@H](Cc1c[nH]c2ccccc12)C(=O)N[C@@H](CC(C)C)C(=O)N[C@H](C(=O)N[C@@H](CCC(N)=O)C(=O)N[C@H](C(=O)N[C@@H](CCCCN)C(=O)NCC(=O)N[C@@H](CCCCN)C(=O)N[C@@H](CCCCN)C(=O)O)[C@@H](C)O)[C@@H](C)CC [Compound 30],Absolute hGLP-2R internalization (AUC),[1]; [8],22.7
same,Relative hGLP-2R internalization (%),[1]; relative to native ligand = 100,46.8%
same,EC50,[2],> 0.1 µM
same,Emax,[3],93%
same,Emax,[4],98%
same,Absolute hGLP-1R internalization (AUC),[5]; [8],7.3
same,Relative hGLP-1R internalization (%),[5]; relative to hGLP-1 = 100,8.6%
same,Emax,[6],73%
same,Absolute hGIPR internalization (AUC),[7],21.0
same,Relative hGIPR internalization (%),[7],57%
